The text below walks through data of patent publication US10464926B2, “Heterobicyclic compounds and their use for the treatment of tuberculosis” (OTSUKA PHARMACEUTICAL CO., LTD., priority 2014, dated 2019).

Broadly, the melting point is the temperature of the solid-liquid transition. For the molecule `O=C1CCc2c(OCC3(O)CCN(c4cccnc4)CC3)ccc(F)c2N1`, the melting point is 178.2 to 178.8 °C.

As for `C[C@H]1CN(c2ncc(Cl)cc2Cl)CC[C@@]1(O)COc1ccc(F)c2c1CCC(=O)N2` (relative stereo), the melting point lay in the range of 222 to 223 °C.

In turn, `O=C1CCc2c(OCC3(O)CCN(c4c(Cl)cc(Cl)cc4Cl)CC3)ccc(F)c2N1` gave a melting point of 239.4 to 239.8 °C.

For the molecule `O=C1CCc2c(OCC3(O)CCN(c4c(F)cc(F)cc4Cl)CC3)ccc(F)c2N1`, the melting point lay in the range of 239.3 to 239.6 °C.

Regarding `O=C1CCc2c(OCC3(O)CCN(c4ccc(OCC(F)(F)F)cc4F)CC3)ccc(Cl)c2N1`, the melting point lay in the range of 148.6 to 148.7 °C.

The molecule `COc1cc(N2CCC(O)(COc3ccc(F)c4c3CCC(=O)N4)CC2)c(F)cc1Cl` came in with a melting point of 232.4 to 232.5 °C.

In turn, `O=C1CCc2c(OC[C@]3(O)CCN(c4ccc(Br)cc4F)C[C@H]3O)ccc(Cl)c2N1` (relative stereo) [Example 269] had a melting point of 190 to 192 °C.

`N#Cc1cccc(N2CCC(O)(COc3ccc(F)c4c3CCC(=O)N4)CC2)c1` returned a melting point of 175 to 177 °C.

Molecule `COc1cc(F)c(N2CCC(O)(COc3ccc(Cl)c4c3CCC(=O)N4)CC2)c(F)c1` showed a melting point of 171.1 to 171.3 °C.

`COC1(COc2ccc(F)c3c2CCC(=O)N3)CCN(c2ncc(Cl)cc2Cl)CC1` returned a melting point of 181 to 182 °C.

`O=C1CCc2c(OCC3(O)CCN(c4ncc(Cl)cc4F)CC3)ccc(Cl)c2N1` gave a melting point of 174.4 to 175.8 °C.

On to `O=C1CCc2c(OC[C@]3(O)CCN(c4ccc(F)cc4)C[C@H]3O)ccc(F)c2N1` (relative stereo) [Example 336], for which the melting point lay within 182.4 to 182.5 °C.

Turning to `O=C1CCc2c(OCC3(O)CCN(c4ccccc4)CC3)ccc(F)c2N1`, the melting point lay in the range of 177 to 177.4 °C.

The molecule `Cc1cc(N2CCC(O)(COc3ccc(F)c4c3CCC(=O)N4)CC2)ccc1Cl` displayed a melting point of 216.1 to 216.3 °C.

For the molecule `O=C1CCc2c(OCC3(O)CCN(c4ccc(C(F)(F)F)cc4)CC3)ccc(F)c2N1`, the melting point is 216.1 °C.

`O=C1CCc2c(OCC3(C(=O)O)CCN(c4ncc(Cl)cc4Cl)CC3)ccc(F)c2N1` yielded a melting point of 276 to 277 °C.

`O=C1CCc2c(OC[C@]3(O)CCN(c4c(F)cc(Br)cc4F)C[C@H]3O)cc(F)c(F)c2N1` yielded a melting point of 204.5 to 204.6 °C.

On to `O=C1CCc2c(OC[C@]3(O)CCN(c4ccc(Cl)cc4F)C[C@H]3O)ccc(Cl)c2N1` [Example 328], for which the melting point was in the range of 185 to 186.4 °C.

Molecule `O=C1CCc2c(OCC3(O)[C@H](O)CN(c4c(F)cc(Cl)cc4F)C[C@H]3O)ccc(F)c2N1` (relative stereo) displayed a melting point of 221.5 to 222 °C.

With `Cn1c(N2CC[C@@](O)(COc3ccc(F)c4c3CCC(=O)N4)[C@H](O)C2)nc2ccccc21`, the melting point lay within 138 to 147 °C.

Take `CCOc1cnc(N2CCC(O)(COc3ccc(Cl)c4c3CCC(=O)N4)CC2)c(Cl)c1`: the melting point was in the range of 169 to 170.4 °C.

With `O=C1CCc2c(OCC3(O)CCN(c4ccc(F)cc4Cl)CC3)ccc(F)c2N1`, the melting point amounted to 208 °C.

Take `O=C1CCc2c(OC[C@]3(O)CCN(c4ccc(Br)cc4F)C[C@H]3O)ccc(Cl)c2N1` [Example 271]: the melting point fell in the range of 183 to 184 °C.

The molecule `N#Cc1ccc(N2CCC(O)(COc3ccc(F)c4c3CCC(=O)N4)CC2)cc1` registered a melting point of 216 °C.

With `O=C1CCc2c(OC[C@]3(O)CCN(c4ccccc4Cl)C[C@H]3O)ccc(F)c2N1`, the melting point lay within 161.3 to 161.4 °C.

Regarding `COCCOCCOc1ccc(N2CCC(O)(COc3ccc(F)c4c3CCC(=O)N4)CC2)c(F)c1`, the melting point lay in the range of 128.7 to 130.7 °C.

Molecule `O=C1CCc2c(NCC3(O)CCN(c4ccc(F)cc4Cl)CC3)ccc(F)c2N1` showed a melting point of 214 to 215 °C.

`O=C1CCc2c(OCC3(O)CCN(c4cc([N+](=O)[O-])ccc4Cl)CC3)ccc(F)c2N1` registered a melting point of 204.8 to 205.4 °C.

In the case of `O=C1CCc2c(OC[C@]3(O)CCN(c4c(F)cc(OC(F)F)cc4F)C[C@H]3O)ccc(F)c2N1` [Example 315], the melting point is 166 °C.

For `CCOCc1ccc(N2CCC(O)(COc3ccc(F)c4c3CCC(=O)N4)CC2)c(F)c1`, the melting point was 154.2 to 154.5 °C.

`O=C1CCc2c(OCC3(O)CCN(c4c(F)cc(Cl)cc4F)CC3)ccc(F)c2N1` yielded a melting point of 225.5 to 225.6 °C.

Regarding `O=C1CCc2c(OCC3(O)CCN(c4ccc(Cl)cc4Br)CC3)ccc(F)c2N1`, the melting point came out at 204.9 °C.

With `O=C1CCc2c(OCC3(O)CCN(c4ccc(OC(F)(F)F)cc4)CC3)ccc(F)c2N1`, the melting point was 200.7 °C.

For `COc1ccc(N2CCC(O)(COc3ccc(F)c4c3CCC(=O)N4)CC2)c(F)c1`, the melting point lay within 201.3 to 201.9 °C.

`CSc1ccc(N2CCC(O)(COc3ccc(Cl)c4c3CCC(=O)N4)CC2)c(Cl)c1`: the melting point was 160.7 to 160.9 °C.

`O=C1CCc2c(OCC3(O)CCN(c4ccc(OCc5ccc(Cl)cc5Cl)cc4F)CC3)ccc(F)c2N1` showed a melting point of 175.9 to 177.1 °C.

For the molecule `O=C1CCc2c(OCC3(O)CCN(c4ncc(Br)cc4F)CC3)ccc(F)c2N1`, the melting point lay within 197.4 to 203.9 °C.

Take `O=C1CCc2c(OCC3(O)CCN(c4cc5c(cc4F)OC(F)(F)O5)CC3)cc(F)c(Cl)c2N1`: the melting point is 249.4 to 250.5 °C (dec.).

The molecule `O=C1CCc2c(OC[C@]3(O)CCN(c4ccc(Cl)cc4F)C[C@H]3O)cc(F)c(F)c2N1` (relative stereo) [Example 330] had a melting point of 220.5 to 221.3 °C.

Molecule `CC(C)Oc1cc(N2CCC(O)(COc3ccc(Cl)c4c3CCC(=O)N4)CC2)c(F)cc1Cl` registered a melting point of 173.3 to 173.5 °C.

For the molecule `CCOc1cc(N2CCC(O)(COc3ccc(F)c4c3CCC(=O)N4)CC2)c(F)cc1Cl`, the melting point fell in the range of 239.8 to 239.9 °C.

With `Cc1cc(N2CCC(O)(COc3ccc(F)c4c3CCC(=O)N4)CC2)c(F)cc1Cl`, the melting point was 208.6 to 208.8 °C.

Consider `O=C1CCc2c(OCC3(O)CCN(c4nccc5ccccc45)CC3)ccc(F)c2N1`, for which the melting point fell in the range of 198 to 199 °C.

Consider `O=C1CCc2c(OCC3(O)CCN(c4ccc(OC(F)(F)F)cc4F)CC3)ccc(Cl)c2N1`, for which the melting point was in the range of 149.7 to 149.9 °C.

For the molecule `CC(=O)NC1(COc2ccc(F)c3c2CCC(=O)N3)CCN(c2ncc(F)cc2C#N)CC1`, the melting point is 237.8 to 238.2 °C.

With `O=C1CCc2c(OC[C@]3(O)CCN(c4ccc(F)cc4Cl)C[C@H]3F)ccc(F)c2N1` (relative stereo), the melting point lay in the range of 218 to 220 °C.

On to `O=c1ccc2c(OC[C@]3(O)CCN(c4c(F)cc(Cl)cc4F)C[C@H]3O)ccc(Cl)c2[nH]1`, for which the melting point was in the range of 228.8 to 229.5 °C.

With `Cc1ccc(N2CCC(O)(COc3ccc(Cl)c4c3CCC(=O)N4)CC2)nc1C`, the melting point lay within 169.6 to 171 °C.

With `O=C1CCc2c(OCC3(O)CCN(c4c(F)cc(Cl)cc4Cl)CC3)ccc(F)c2N1`, the melting point was in the range of 238.8 to 239.1 °C.

In the case of `COc1cc(F)c(N2CCC(O)(COc3ccc(F)c4c3CCC(=O)N4)CC2)c(F)c1`, the melting point was in the range of 195.7 to 196.4 °C.

Molecule `O=C1CCc2c(OC[C@]3(O)CCN(c4ccc(OC(F)(F)F)cc4F)C[C@H]3O)ccc(F)c2N1` gave a melting point of 161.6 to 161.9 °C.

For `COc1cc(N2CCC(O)(COc3ccc(F)c4c3CCC(=O)N4)CC2)ccc1Cl`, the melting point lay in the range of 222.6 to 222.7 °C.
